Test results reported in publication PMC5623949, “Exploiting the 2-Amino-1,3,4-thiadiazole Scaffold To Inhibit Trypanosoma brucei Pteridine Reductase in Support of Early-Stage Drug Discovery” (ACS Omega, 2017).
Like-named read-outs stand apart in the source and are kept apart here.

Experiments:
in vitro [1] = assay: in vitro; design: cytotoxicity, per cent cell growth of A549 cells; conditions: human, a549 cells; read-out: % cell growth A549 at 10uM
Method: (§1) Independent of the effect of any antiparasitic potential of compounds, they were evaluated using a panel of early-toxicity assays comprising cytotoxicity (A549, human lung adenocarcinoma epithelial cell line and WI-38, human lung fibroblasts), mitochondrial toxicity (786-O, human renal carcinoma cell line), hERG inhibition,[31] cytochrome P450 inhibition (CYP1A2, CYP2C9, CYP2C19, CYP2D6, and CYP3A4),[31] and Aurora B kinase inhibition. […] For the two compounds active against TbPTR1 (4m and 4o), IC50 against hERG, cytochrome P450, and mitochondrial toxicity were determined (reported in Supporting Information). We observed that the dose of compounds 4m, 4o, 4c, and 3k was 4 μM in the potentiation assays. […] In the case of hERG, CYP2D6, CYP2A9, CYP2C19, and mitochondrial toxicity, there is a selectivity index of around 3–4 fold, thus showing an acceptable profile.  Figure 10 Summary heat map of the in vitro assays to determine possible liability issues for all synthesized compounds. Assays were performed to assess inhibition of hERG and five CYP isoforms (1A2, 2C9, 2C19, 2D6, and 3A4), growth inhibition of A549 and W1-38 cell lines, and mitochondrial toxicity at 10 μM. The hDHFR inhibition was determined at 100 μM. The data, expressed as percentage values, were organized by adopting a color code for rapid and intuitive visualization. The ideal compound should have all tiles blue, indicating a safe toxicological profile for progressing into the development pipeline. The cells are colored from blue (100% of cell growth at the tested concentration) to red (0% of cell growth at the tested concentration) for A549 and W1-38 and from blue (0% of inhibitory activity at the tested concentration) to red (100% of inhibitory activity at the tested concentration) for CYP isoforms, hERG, hDHFR, and mitochondrial toxicity.

hERG = biological target: T1, hERG (Homo sapiens, UniProt Q12809); design: hERG inhibition liability assay
T1 construct: gene KCNH2
Method: as §1

hDHFR = biological target: T2, hDHFR (Homo sapiens, UniProt P00374); assay: biochemical; design: human DHFR enzyme inhibition
T2 construct: gene DHFR
T2 sequence (P00374 1-187): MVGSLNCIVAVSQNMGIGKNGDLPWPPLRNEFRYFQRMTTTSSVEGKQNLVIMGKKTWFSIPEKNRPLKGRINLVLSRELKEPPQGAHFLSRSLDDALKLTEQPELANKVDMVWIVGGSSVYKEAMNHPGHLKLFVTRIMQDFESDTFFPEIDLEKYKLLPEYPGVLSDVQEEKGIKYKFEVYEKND
Method: Figure 10 Summary heat map of the in vitro assays to determine possible liability issues for all synthesized compounds. Assays were performed to assess inhibition of hERG and five CYP isoforms (1A2, 2C9, 2C19, 2D6, and 3A4), growth inhibition of A549 and W1-38 cell lines, and mitochondrial toxicity at 10 μM. The hDHFR inhibition was determined at 100 μM. The data, expressed as percentage values, were organized by adopting a color code for rapid and intuitive visualization. The ideal compound should have all tiles blue, indicating a safe toxicological profile for progressing into the development pipeline. The cells are colored from blue (100% of cell growth at the tested concentration) to red (0% of cell growth at the tested concentration) for A549 and W1-38 and from blue (0% of inhibitory activity at the tested concentration) to red (100% of inhibitory activity at the tested concentration) for CYP isoforms, hERG, hDHFR, and mitochondrial toxicity.

in vitro [2] = assay: in vitro; design: cytotoxicity, per cent cell growth of WI-38 fibroblasts; conditions: human, wi-38 cells; read-out: % cell growth W1-38 at 10uM
Method: as §1

[3] = system: T. b. brucei Lister 427 bloodstream forms; assay: In vitro activity against T. brucei (HTS SYBR Green I growth inhibition assay); assay type: cell-based, Trypanosoma brucei brucei; conditions: Trypanosoma brucei, standard deviation within ±10% of the value; for inhibition at 50 µM: read-out: % Inhibition T. brucei at 50 μM; for EC50: read-out: EC50 T. brucei
TbPTR1 = biological target: T3, TbPTR1 (Trypanosoma brucei brucei, UniProt O76290); assay: biochemical; conditions: for inhibition at 50 µM: 50 μM compound, read-out: % Inhibition TbPTR1 at 50 μM
T3 construct: made in house
T3 sequence (O76290 1-268): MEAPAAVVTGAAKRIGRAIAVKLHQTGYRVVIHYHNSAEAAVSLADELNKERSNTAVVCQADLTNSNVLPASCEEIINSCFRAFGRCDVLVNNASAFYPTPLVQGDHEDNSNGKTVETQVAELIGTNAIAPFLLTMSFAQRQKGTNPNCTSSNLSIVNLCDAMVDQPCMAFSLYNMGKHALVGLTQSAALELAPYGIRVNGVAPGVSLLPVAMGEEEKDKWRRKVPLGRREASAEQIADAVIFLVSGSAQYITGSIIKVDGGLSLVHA

CYP3A4 = CYP3A4 (Homo sapiens, UniProt P08684); assay: in vitro; design: cytochrome P450 isoform inhibition liability assay
Method: as §1

CYP2C9 = CYP2C9 (Homo sapiens, UniProt P11712); assay: in vitro; design: cytochrome P450 isoform inhibition liability assay
Method: as §1

CYP2C19 = CYP2C19 (Homo sapiens, UniProt P33261); assay: in vitro; design: cytochrome P450 isoform inhibition liability assay
Method: as §1

CYP1A2 = biological target: T4, CYP1A2 (Homo sapiens, UniProt P05177); assay: in vitro; design: cytochrome P450 isoform inhibition liability assay
T4 sequence (P05177 1-516): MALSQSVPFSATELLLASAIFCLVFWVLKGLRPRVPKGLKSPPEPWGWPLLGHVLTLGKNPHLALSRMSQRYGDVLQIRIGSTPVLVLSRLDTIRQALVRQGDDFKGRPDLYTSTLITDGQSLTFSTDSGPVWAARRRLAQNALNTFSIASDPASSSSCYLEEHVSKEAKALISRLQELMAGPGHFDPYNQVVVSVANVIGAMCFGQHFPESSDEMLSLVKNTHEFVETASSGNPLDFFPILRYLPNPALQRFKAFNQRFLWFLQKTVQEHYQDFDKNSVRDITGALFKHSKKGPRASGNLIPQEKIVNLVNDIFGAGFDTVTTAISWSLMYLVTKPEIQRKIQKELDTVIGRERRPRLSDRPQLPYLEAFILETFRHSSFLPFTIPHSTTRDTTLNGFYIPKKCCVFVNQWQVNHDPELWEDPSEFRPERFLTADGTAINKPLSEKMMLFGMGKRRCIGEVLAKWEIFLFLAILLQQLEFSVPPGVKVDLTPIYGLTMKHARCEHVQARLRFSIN
Method: as §1

CYP2D6 = CYP2D6 (Homo sapiens, UniProt P10635); assay: in vitro; design: cytochrome P450 isoform inhibition liability assay
Method: as §1

786-O = assay: cells; design: mitochondrial toxicity in 786-O renal carcinoma cells; conditions: Homo sapiens, 786-0; mitochondrial toxicity
Method: as §1

CYP3A4, sequence (P08684 whole entry, canonical isoform): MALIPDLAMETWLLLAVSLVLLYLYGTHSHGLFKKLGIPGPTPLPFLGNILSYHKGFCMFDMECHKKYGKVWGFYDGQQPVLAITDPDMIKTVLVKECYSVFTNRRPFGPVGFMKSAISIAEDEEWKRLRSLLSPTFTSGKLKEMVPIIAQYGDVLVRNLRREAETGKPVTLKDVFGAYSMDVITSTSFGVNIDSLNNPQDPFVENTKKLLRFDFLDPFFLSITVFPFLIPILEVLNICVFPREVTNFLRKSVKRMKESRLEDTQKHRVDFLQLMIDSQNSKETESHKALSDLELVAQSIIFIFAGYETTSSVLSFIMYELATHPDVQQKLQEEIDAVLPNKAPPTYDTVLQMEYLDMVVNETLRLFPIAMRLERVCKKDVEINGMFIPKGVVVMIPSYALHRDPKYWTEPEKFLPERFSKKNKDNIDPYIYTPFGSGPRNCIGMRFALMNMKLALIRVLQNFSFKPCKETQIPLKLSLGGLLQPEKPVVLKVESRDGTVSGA
T1 sequence (Q12809 whole entry): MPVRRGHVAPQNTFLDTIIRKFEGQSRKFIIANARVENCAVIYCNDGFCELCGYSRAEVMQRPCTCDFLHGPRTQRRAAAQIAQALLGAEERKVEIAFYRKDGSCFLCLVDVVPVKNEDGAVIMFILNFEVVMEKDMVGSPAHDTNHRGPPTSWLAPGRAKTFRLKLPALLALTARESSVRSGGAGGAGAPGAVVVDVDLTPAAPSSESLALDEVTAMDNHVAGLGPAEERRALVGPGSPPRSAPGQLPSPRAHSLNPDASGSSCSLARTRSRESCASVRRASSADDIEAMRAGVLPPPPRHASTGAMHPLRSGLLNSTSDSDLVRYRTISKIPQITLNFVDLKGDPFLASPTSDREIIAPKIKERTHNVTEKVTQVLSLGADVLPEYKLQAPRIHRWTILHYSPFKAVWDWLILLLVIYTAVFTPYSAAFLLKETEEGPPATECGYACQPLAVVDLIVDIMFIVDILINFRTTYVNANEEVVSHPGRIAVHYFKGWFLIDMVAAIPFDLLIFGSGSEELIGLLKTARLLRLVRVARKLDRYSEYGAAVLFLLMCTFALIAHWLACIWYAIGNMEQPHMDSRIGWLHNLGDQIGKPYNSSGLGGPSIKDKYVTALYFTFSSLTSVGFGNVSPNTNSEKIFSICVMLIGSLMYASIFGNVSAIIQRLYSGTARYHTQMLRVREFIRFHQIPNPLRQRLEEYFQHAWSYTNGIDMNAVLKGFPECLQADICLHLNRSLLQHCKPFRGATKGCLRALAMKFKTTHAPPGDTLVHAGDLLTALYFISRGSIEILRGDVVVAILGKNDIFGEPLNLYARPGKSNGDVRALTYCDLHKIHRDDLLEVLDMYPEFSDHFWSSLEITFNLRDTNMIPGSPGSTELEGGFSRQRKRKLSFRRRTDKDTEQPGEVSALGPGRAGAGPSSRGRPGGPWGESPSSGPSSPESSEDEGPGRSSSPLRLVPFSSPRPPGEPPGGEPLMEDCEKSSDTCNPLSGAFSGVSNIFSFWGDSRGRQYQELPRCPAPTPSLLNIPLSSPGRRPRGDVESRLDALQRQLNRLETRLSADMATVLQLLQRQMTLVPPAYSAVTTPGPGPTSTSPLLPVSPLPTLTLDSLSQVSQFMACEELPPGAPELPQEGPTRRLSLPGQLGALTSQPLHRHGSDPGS
CYP2D6, sequence (P10635 whole entry, canonical isoform): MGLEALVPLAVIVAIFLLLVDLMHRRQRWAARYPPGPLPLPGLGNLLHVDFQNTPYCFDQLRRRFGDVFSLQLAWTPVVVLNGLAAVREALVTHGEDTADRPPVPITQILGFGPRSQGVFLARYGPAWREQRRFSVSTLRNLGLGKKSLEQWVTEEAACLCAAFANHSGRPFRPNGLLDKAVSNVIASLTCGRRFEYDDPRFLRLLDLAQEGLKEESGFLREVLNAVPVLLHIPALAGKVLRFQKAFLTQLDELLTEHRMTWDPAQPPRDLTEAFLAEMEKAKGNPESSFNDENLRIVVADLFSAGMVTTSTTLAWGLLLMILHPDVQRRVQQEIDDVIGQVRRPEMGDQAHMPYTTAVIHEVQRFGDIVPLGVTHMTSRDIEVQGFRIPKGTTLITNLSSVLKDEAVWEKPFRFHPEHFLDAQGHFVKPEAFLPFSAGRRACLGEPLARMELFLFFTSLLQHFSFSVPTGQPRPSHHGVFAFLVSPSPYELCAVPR
CYP2C19, sequence (P33261 whole entry, canonical isoform): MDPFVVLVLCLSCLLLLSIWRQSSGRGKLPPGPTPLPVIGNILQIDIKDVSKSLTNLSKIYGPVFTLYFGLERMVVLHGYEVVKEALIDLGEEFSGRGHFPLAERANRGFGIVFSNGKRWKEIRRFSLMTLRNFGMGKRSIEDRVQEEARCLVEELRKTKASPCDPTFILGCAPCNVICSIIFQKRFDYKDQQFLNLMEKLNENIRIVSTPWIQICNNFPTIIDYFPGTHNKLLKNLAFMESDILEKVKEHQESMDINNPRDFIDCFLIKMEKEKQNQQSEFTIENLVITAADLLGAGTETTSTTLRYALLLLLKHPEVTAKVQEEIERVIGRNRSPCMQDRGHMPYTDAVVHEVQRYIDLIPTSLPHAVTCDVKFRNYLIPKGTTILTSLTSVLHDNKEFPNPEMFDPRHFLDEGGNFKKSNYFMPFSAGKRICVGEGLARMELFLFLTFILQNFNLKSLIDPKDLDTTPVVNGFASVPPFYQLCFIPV
CYP2C9, sequence (P11712 whole entry, canonical isoform): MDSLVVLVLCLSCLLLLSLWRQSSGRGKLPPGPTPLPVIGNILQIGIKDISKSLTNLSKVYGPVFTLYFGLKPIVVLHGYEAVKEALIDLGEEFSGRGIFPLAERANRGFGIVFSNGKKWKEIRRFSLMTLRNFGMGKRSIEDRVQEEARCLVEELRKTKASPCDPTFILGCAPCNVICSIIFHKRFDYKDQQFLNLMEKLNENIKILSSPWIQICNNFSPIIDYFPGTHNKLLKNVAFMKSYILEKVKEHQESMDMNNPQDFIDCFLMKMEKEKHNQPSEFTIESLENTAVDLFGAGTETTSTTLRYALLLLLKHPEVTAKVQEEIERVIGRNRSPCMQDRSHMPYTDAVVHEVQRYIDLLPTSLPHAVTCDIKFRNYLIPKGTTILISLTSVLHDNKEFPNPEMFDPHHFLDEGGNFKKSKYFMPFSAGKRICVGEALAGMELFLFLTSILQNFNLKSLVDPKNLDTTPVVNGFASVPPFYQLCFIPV

Structure (SMILES) | viability at 10 µM (in vitro [1]) | inhibition at 10 µM (hERG) | inhibition at 100 µM (hDHFR) | viability at 10 µM (in vitro [2]) | inhibition at 50 µM [3] | inhibition at 50 µM (TbPTR1) | inhibition at 10 µM (CYP3A4) | inhibition at 10 µM (CYP2C9) | inhibition at 10 µM (CYP2C19) | inhibition at 10 µM (CYP1A2) | inhibition at 10 µM (CYP2D6) | inhibition at 10 µM (786-O) | inhibition at 25 µM (hDHFR; 25 uM) | inhibition at 10 µM (hDHFR) | EC50 [3] | times less active than 4o against TbPTR1 (TbPTR1) | IC50 (TbPTR1; dose-response 0.001-100 μM)
Nc1cccc(-c2nnc(N)s2)c1 [1j] | 134 ± 4.7% | 32.6 ± 34.3% | 18% | 92.5 ± 7.8% | 1% | 27 ± 0.4% | -14.9 ± 3.9% | -20.2 ± 7.3% | -45.8 ± 11.8% | 5.3 ± 5.1% | -51 ± 8.9% | – | – | – | – | – | –
COc1ccc(-c2cccc(-c3nnc(N)s3)c2)cc1OC [2f] | 106 ± 4.2% | 15.1 ± 4.8% | 28% | 87.5 ± 44.4% | 9.5% | 8.6 ± 0.6% | 48.3 ± 2.4% | 53.2 ± 1.6% | – | 92.8 ± 1.9% | 19.2 ± 3.5% | 1.6 ± 14.4% | – | – | – | – | –
N#Cc1ccc(Cc2ccccc2-c2nnc(N)s2)cc1 [1n, 4-(2-(5-amino-1,3,4-thiadiazol-2-yl)benzyl)benzonitrile] | – | – | – | – | – | – | 69.6 ± 3.25% | 59.8 ± 4.9% | 104 ± 2% | 56.2 ± 0.5% | 75.4 ± 5.2% | – | 37% | – | – | – | –
Nc1nnc(-c2cccc(-c3cccc(C(F)(F)F)c3)c2)s1 [2d] | – | – | – | – | 94.8% | 4.6 ± 1% | 33.9 ± 3.8% | 46.1 ± 5.4% | 43.6 ± 2.1% | 100 ± 2.1% | 31.1 ± 4.3% | – | – | 34% | 37 µM | – | –
Nc1nnc(NCCc2ccccc2)s1 [4n] | 112 ± 5.4% | 91.4 ± 6.2% | 19% | 66.1 ± 3.1% | 4% | 36.7 ± 2% | 25.1 ± 4.3% | 30.4 ± 2.9% | 29.2 ± 6.6% | 22.7 ± 1.9% | 103 ± 0.2% | – | – | – | – | about 3 times | 62 µM
C[C@@H](c1cccc(C(=O)c2ccccc2)c1)c1nnc(N)s1 [3f] | 134 ± 3.3% | 16 ± 6.3% | 51% | 127 ± 21.4% | 88% | 47.2 ± 0.4% | 94.5 ± 0.8% | – | 39.3 ± 3.2% | -14.2 ± 7.1% | -12.7 ± 6.2% | -3.4 ± 2.1% | – | – | 20 µM | – | –
Nc1nnc(-c2ccccc2)s1 [1a] | 119 ± 12.5% | -3.3 ± 1.9% | – | 101 ± 10.3% | 21% | 25.3 ± 1.2% | 82.6 ± 1.6% | 3.9 ± 2.9% | 76.9 ± 3.2% | 24.8 ± 1.8% | -8.5 ± 2.2% | 0.9 ± 10.6% | – | – | – | – | –
Nc1nnc(-c2cccc([N+](=O)[O-])c2)s1 [1k] | 113 ± 1.9% | 7 ± 5.8% | – | 108 ± 16.8% | 1.4% | 15.6 ± 1.1% | -14.2 ± 13.2% | 12.5 ± 6.8% | -28.3 ± 17.9% | 31.1 ± 2.7% | -49.3 ± 17.6% | -5.7 ± 12.9% | – | – | – | – | –
Nc1nnc(-c2ccco2)s1 [1s] | 132 ± 9.6% | -3.8 ± 3.2% | – | 138 ± 9.8% | < 0% | 9 ± 0.8% | -14.9 ± 9.7% | -9 ± 3.5% | -10.4 ± 22.5% | 0.3 ± 4.9% | -47.6 ± 4.7% | 1.9 ± 4.8% | – | – | – | – | –
Cc1nnc(N)s1 [3a] | 130 ± 19.1% | 8.2 ± 6.6% | – | 130 ± 5.8% | < 0% | 5.4 ± 0.7% | -22.3 ± 9% | -10.9 ± 5% | -35.5 ± 2.4% | -6.6 ± 2.1% | -46 ± 4.5% | -4.4 ± 14.3% | – | – | – | – | –
Nc1nnc(-c2ccccc2Cc2ccccc2)s1 [1m, 5-(2-benzylphenyl)-1,3,4-thiadiazol-2-amine] | – | – | – | – | – | – | 47.5 ± 4.8% | 36.5 ± 5.4% | 90.5 ± 0.6% | 68.1 ± 1% | 69.2 ± 4.5% | – | – | 20% | – | – | –
COCCCNc1nnc(N)s1 [4s, N2G(3Gmethoxypropyl)G1,3,4GthiadiazoleG2,5Gdiamine] | 101 ± 11.2% | 3.9 ± 5.4% | – | 89.6 ± 8.9% | < 0% | 11.8 ± 0.3% | -37.5 ± 15.3% | -15.5 ± 7.2% | -20 ± 13.9% | -14.8 ± 3.7% | -13.5 ± 10.7% | -0.9 ± 11.9% | – | – | – | – | –
Nc1nnc(Cc2ccc3ccccc3c2)s1 [3e] | 141 ± 5.6% | -5.6 ± 3.5% | – | 105 ± 38.5% | 0.4% | 20.9 ± 0.3% | -3.2 ± 3.8% | -47.8 ± 3.9% | -54.9 ± 9.3% | 0.4 ± 1.3% | -31.7 ± 1.7% | 4.3 ± 8.6% | – | – | – | – | –
Nc1nnc(-c2cccc(-c3ccc(C(F)(F)F)cc3)c2)s1 [2e] | – | – | – | – | 92.1% | 6.6 ± 0.6% | 17.9 ± 5.3% | 25.6 ± 4% | 12.3 ± 5.4% | 92.6 ± 1.1% | 20 ± 5.8% | – | – | 25% | 42 µM | – | –
